Source: publication PMC12041661, “Dual MNK/VEGFR2 Inhibitor JDB153 Enhances Immunotherapeutic Efficiency and Chemosensitivity in Lung Cancer” (MedComm, 2025)

Tests used:
[1] = target: T1, VEGFR2 (Homo sapiens, UniProt P35968); assay: radiometric kinase assay; type: biochemical
T1 construct: gene KDR

[2] = target: T2, MNK1 (Homo sapiens, UniProt Q9BUB5); assay: radiometric kinase assay; type: biochemical
T2 construct: gene MKNK1
T2 sequence (Q9BUB5 whole entry): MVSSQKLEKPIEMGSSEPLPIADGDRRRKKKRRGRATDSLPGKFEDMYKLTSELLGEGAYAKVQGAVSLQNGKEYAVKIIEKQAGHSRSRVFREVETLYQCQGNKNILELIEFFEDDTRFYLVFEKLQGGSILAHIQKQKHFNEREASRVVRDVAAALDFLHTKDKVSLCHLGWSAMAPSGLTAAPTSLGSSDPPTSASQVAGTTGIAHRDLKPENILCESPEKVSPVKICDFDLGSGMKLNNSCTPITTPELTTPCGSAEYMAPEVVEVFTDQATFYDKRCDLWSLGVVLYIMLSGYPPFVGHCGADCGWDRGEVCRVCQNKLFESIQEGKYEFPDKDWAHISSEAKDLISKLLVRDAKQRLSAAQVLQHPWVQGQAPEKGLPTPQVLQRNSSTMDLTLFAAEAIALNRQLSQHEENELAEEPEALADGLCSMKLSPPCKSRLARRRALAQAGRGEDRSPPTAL

T1 sequence (P35968 20-1356): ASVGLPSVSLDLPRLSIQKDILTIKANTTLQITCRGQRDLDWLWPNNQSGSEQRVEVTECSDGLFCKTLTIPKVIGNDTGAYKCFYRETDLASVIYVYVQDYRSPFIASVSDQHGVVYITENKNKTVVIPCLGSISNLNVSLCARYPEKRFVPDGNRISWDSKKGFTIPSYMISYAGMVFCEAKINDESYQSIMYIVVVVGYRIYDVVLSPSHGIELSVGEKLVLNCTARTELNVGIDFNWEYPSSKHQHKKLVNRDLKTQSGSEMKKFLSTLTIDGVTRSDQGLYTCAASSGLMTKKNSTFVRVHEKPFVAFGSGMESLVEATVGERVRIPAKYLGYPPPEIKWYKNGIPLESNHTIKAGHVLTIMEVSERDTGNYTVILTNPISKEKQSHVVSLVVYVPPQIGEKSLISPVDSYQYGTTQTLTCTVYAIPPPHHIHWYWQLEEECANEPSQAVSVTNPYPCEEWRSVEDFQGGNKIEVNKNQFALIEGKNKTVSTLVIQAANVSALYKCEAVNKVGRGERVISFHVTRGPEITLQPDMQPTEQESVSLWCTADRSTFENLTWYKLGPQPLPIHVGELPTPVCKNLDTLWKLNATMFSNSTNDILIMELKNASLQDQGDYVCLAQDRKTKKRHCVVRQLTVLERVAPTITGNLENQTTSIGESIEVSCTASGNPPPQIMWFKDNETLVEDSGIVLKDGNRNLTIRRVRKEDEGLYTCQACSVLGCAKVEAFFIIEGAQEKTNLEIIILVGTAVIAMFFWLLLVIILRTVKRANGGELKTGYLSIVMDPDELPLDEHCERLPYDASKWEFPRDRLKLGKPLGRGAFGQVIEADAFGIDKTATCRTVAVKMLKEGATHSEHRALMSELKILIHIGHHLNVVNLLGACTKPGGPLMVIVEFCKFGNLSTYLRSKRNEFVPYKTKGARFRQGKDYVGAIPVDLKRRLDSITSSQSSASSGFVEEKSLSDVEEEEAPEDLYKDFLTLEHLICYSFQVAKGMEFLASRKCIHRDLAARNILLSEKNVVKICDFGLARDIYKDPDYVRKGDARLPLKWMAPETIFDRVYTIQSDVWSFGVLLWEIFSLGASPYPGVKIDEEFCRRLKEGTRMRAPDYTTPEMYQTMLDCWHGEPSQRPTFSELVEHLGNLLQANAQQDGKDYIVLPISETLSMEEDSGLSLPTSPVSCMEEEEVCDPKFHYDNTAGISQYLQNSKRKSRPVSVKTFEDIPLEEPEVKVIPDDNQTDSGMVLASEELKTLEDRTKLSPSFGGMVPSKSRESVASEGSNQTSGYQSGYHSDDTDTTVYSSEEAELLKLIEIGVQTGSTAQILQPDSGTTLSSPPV

For `Cc1cc(Nc2ncnn3cc(OCCN4CCC(F)(F)C4)c(C)c23)c(=O)n2c1C(=O)NC21CCCC1` [JDB153], the IC50 [1] was 3 nM and the IC50 [2] was 26.6 nM.
